Test results as given in US20040086942A1, “Ige receptor antagonists” (priority 2003, published 2004).
Read-outs that look alike come from different tables or passages of the source. Where a SMILES comes first, the peptide text is derived from it. Bridges are numbered along the chain shown (N, C = ends). [ ]: non-standard residue; d: D form. Pip = O=C(O)[C@@H]1CCCCN1

Target: T1, alpha subunit of the human FcεRI receptor (Homo sapiens, UniProt P12319)
T1 construct: expressed in transfected cells; host or cells: Chinese hamster ovary (CHO FcεRI+) cells
T1 sequence (P12319 26-257): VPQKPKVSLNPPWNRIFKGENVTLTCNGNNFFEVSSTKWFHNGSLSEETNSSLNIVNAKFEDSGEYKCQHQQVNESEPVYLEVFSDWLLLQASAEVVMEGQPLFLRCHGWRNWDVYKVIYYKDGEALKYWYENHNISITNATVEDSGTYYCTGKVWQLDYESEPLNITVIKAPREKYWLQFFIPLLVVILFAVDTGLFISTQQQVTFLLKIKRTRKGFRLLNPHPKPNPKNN
Assay: cell-based 125I-IgE binding inhibition assay on CHO FcεRI+ cells
Details: for fold difference in activity relative to comparator peptide: comparator (parent/control peptide) as named in the sentence
Method: . The following day the cells were rinsed three times with PBS and then once with F12/DMEM. Peptide stocks were reconstituted in 100 mM Hepes buffered water, pH 7.2, at a concentration of 5 mg/mL. Working concentrations of the peptide were diluted in assay buffer (see below). 75 ul, of a desired concentration of peptide was added to the top row of a separate 96 well microtiter plate and serially diluted 1:3 in 50 uL of the assay buffer (F12/DMEM, 1% BSA, 0.05% NaN3 and […] Hepes pH 7.2). Starting concentrations ranged from 50-500 uM. Next, 50 uL of the diluted peptide was transferred to the 96 microtiter well plate containing a monolayer of CHO FcεRI+ cells. After a 1 hour incubation at room temperature, 50 uL of ^125I-IgE (1.5 nM) was added to each well and incubated for an additional 45-60 minutes at 4° C. followed by 5 washes with 200 uL of assay buffer. Cells were solubilized with 200 uL of 1 N NaOH and transferred to a 96 microtiter tube for counting in a gamma counter to determine counts bound. The data were plotted using KaleidaGraph 3.0 and fitted using 4-parameter fits. IC50 values were determined for each peptide.
Six peptides based on selected clones from library #516 were synthesized and assayed for the ability to inhibit the binding of ^125I-IgE to a Chinese hamster ovary cell line expressing the alpha subunit of the IgE high affinity receptor, FcεRI. The peptides were synthesized as nine residue monomers and oxidized to allow the formation of a disulfide bridge resulting in a cyclic peptide. The size of each peptide was confirmed by mass spectrometry.

[1] = inhibition of labeled IgE-binding to CHO FcεRI+ cells, read-out: Mean IC50(uM) ± S.D.
[2] = IgE-inhibition activity of synthetic peptides, read-out: Inhibition activity: C+hd 50 +l (uM) ± s.d.

## CC[C@H](C)[C@H](NC(=O)[C@@H]1CSSC[C@H](N)C(=O)N[C@@H](CC(C)C)C(=O)N[C@@H](CCC(=O)O)C(=O)NCC(=O)N2CCC[C@H]2C(=O)N[C@@H](Cc2c[nH]c3ccccc23)C(=O)NCC(=O)N[C@@H](Cc2c[nH]c3ccccc23)C(=O)N[C@@H](Cc2ccccc2)C(=O)N1)C(N)=O [IGE045, CLEGPWGWFCI-nh2] (H-CLEGPWGWFCI-NH2; disulfide 1-10; N-terminus assumed)
[1]
  IC50: 300 ± 269 µM

## CC[C@H](C)[C@H](NC(=O)[C@@H]1CSSC[C@H](NC(=O)[C@H](CCCNC(=N)N)NC(=O)[C@@H]2CCCN2C(=O)[C@H](CC(C)C)NC(=O)[C@@H](N)CC(N)=O)C(=O)N[C@@H]([C@@H](C)O)C(=O)N[C@@H](CCC(=O)O)C(=O)NCC(=O)N2CCC[C@H]2C(=O)N[C@@H](Cc2c[nH]c3ccccc23)C(=O)NCC(=O)N[C@@H](Cc2c[nH]c3ccccc23)C(=O)N[C@@H](C(C)C)C(=O)N1)C(=O)O [IGE075, NLPRCTEGPWGWVCI] (H-NLPRCTEGPWGWVCI-OH; disulfide 5-14; N-terminus and C-terminus assumed)
[1]
  IC50: 1.4 ± 1.1 µM

## CSCC[C@H](NC(=O)[C@@H]1CSSC[C@H](NC(=O)[C@H](CCCNC(=N)N)NC(=O)[C@@H]2CCCN2C(=O)[C@H](CC(C)C)NC(=O)[C@@H](N)CC(N)=O)C(=O)N[C@@H]([C@@H](C)O)C(=O)N[C@@H](CCC(=O)O)C(=O)NCC(=O)N2CCC[C@H]2C(=O)N[C@@H](Cc2c[nH]c3ccccc23)C(=O)NCC(=O)N[C@@H](Cc2c[nH]c3ccccc23)C(=O)N[C@@H](C(C)C)C(=O)N1)C(=O)N[C@@H](C)C(=O)N[C@@H](C)C(=O)N[C@@H](CC(=O)O)C(N)=O [IGE043, NLPRCTEGPWGWVCMAAD-nh2] (H-NLPRCTEGPWGWVCMAAD-NH2; disulfide 5-14)
[1]
  IC50: 1.4 ± 1 µM

## CSCC[C@H](NC(=O)[C@@H]1CSSC[C@H](NC(=O)[C@H](CCCNC(=N)N)NC(=O)[C@@H]2CCCN2C(=O)[C@H](CC(C)C)NC(=O)[C@H](CC(N)=O)NC(C)=O)C(=O)N[C@@H]([C@@H](C)O)C(=O)N[C@@H](C)C(=O)NCC(=O)N2CCC[C@H]2C(=O)N[C@@H](Cc2c[nH]c3ccccc23)C(=O)NCC(=O)N[C@@H](Cc2c[nH]c3ccccc23)C(=O)N[C@@H](C(C)C)C(=O)N1)C(=O)N[C@@H](C)C(=O)N[C@@H](C)C(=O)N[C@@H](CC(=O)O)C(N)=O [IGE059, AC-NLPRCTAGPWGWVCMAAD-nh2] (Ac-NLPRCTAGPWGWVCMAAD-NH2; disulfide 5-14)
Truncations and alanine substitutions of IGE063
  fold reduction in inhibition/binding: 6 fold

## CC[C@H](C)[C@H](NC(=O)[C@@H]1CSSC[C@H](NC(=O)[C@H](CC(C)C)NC(=O)[C@@H](NC(=O)CNC(=O)[C@@H](N)CCSC)[C@@H](C)O)C(=O)N[C@@H](CC(C)C)C(=O)N[C@@H](CCC(=O)O)C(=O)NCC(=O)N2CCC[C@H]2C(=O)N[C@@H](CCC(=O)O)C(=O)NCC(=O)N[C@@H](Cc2c[nH]c3ccccc23)C(=O)N[C@@H](Cc2ccccc2)C(=O)N1)C(=O)N[C@@H](CCC(=O)O)C(=O)N[C@@H](CO)C(=O)N[C@@H](C)C(=O)O [MGTLCLEGPEGWFCIESA] (H-MGTLCLEGPEGWFCIESA-OH; disulfide 5-14)
IGE037: initially, read-out: IC50
  IC50: > 160 µM

## CC(C)C[C@@H]1NC(=O)[C@H](CCC(=O)O)NC(=O)[C@H](C)NC(=O)CNC(=O)CNC(=O)[C@H](Cc2ccccc2)NC(=O)[C@H](Cc2ccc(O)cc2)NC(=O)[C@@H]2CSSC[C@H](NC1=O)C(=O)N1CCC[C@H]1C(=O)N[C@@H](CC(=O)O)C(=O)N[C@@H](C(C)C)C(=O)N[C@H](C(=O)N[C@@H](Cc1ccc(O)cc1)C(=O)N[C@H](C(N)=O)C(C)C)CSSC[C@H](NC(=O)[C@H](CCC(N)=O)NC(=O)[C@@H](N)C(C)C)C(=O)N1CCCC[C@H]1C(=O)N[C@@H](Cc1c[nH]cn1)C(=O)N[C@@H](Cc1ccccc1)C(=O)N2 [IGE162-2, VQC(Pip)HFCYFGGAELCPDVCYV-nh2] (H-VQC[Pip]HFCYFGGAELCPDVCYV-NH2; disulfide 3-19, 7-15)
  fold difference in activity relative to comparator peptide: little change in activity

## CC[C@H](C)[C@H](N)C(=O)N[C@H](C(=O)N[C@H]1CSSC[C@@H](C(=O)N[C@@H](Cc2ccc(O)cc2)C(=O)N[C@H](C(N)=O)C(C)C)NC(=O)[C@H](C(C)C)NC(=O)[C@H](CC(=O)O)NC(=O)[C@@H]2CCCN2C(=O)[C@@H]2CSSC[C@H](NC(=O)[C@H](CC(C)C)NC(=O)[C@H](CCCNC(=N)N)NC(=O)[C@@H]3CCCN3C1=O)C(=O)N[C@@H](Cc1ccc(O)cc1)C(=O)N[C@@H](CCC(=O)O)C(=O)N[C@@H](CC(C)C)C(=O)N[C@@H](CC(=O)O)C(=O)N[C@@H](Cc1ccc(O)cc1)C(=O)N[C@@H](CCC(=O)O)C(=O)N[C@@H](CC(C)C)C(=O)N2)C(C)C [IGE141] (H-IVCPRLCYELDYELCPDVCYV-NH2; disulfide 3-19, 7-15)
  fold difference in activity relative to comparator peptide: 2 fold

## CSCC[C@H](NC(=O)[C@@H]1CSSC[C@H](NC(=O)[C@H](CCCNC(=N)N)NC(=O)[C@@H]2CCCN2C(=O)[C@H](CC(C)C)NC(=O)[C@H](CC(N)=O)NC(C)=O)C(=O)N[C@@H]([C@@H](C)O)C(=O)N[C@@H](CCC(=O)O)C(=O)NCC(=O)N2CCC[C@H]2C(=O)N[C@@H](Cc2c[nH]c3ccccc23)C(=O)NCC(=O)N[C@@H](Cc2c[nH]c3ccccc23)C(=O)N[C@@H](C(C)C)C(=O)N1)C(N)=O [IGE058, Ac-NLPRCTEGPWGWVCM-nh2] (Ac-NLPRCTEGPWGWVCM-NH2; disulfide 5-14)
[1]
  IC50: 1.8 ± 1.3 µM

## CC(C)C[C@H](NC(=O)[C@H](C)N)C(=O)N[C@H]1CSSC[C@@H](C(=O)N[C@@H](Cc2ccc(O)cc2)C(=O)N[C@H](C(N)=O)C(C)C)NC(=O)[C@H](C(C)C)NC(=O)[C@H](CCC(=O)O)NC(=O)[C@@H]2CCCN2C1=O [IGE035, ALCPEVCYV-nh2] (H-ALCPEVCYV-NH2; disulfide 3-7)
  inhibiting 125I-IgE binding to cell surface expressed FcεRI (in words): not active
[2]
  IC50: > 500 µM

## CC[C@H](C)[C@H](NC(=O)[C@@H]1CSSC[C@H](NC(C)=O)C(=O)N[C@@H]([C@@H](C)O)C(=O)N[C@@H](CCC(=O)O)C(=O)NCC(=O)N2CCC[C@H]2C(=O)N[C@@H](Cc2c[nH]c3ccccc23)C(=O)NCC(=O)N[C@@H](Cc2c[nH]c3ccccc23)C(=O)N[C@@H](C(C)C)C(=O)N1)C(N)=O [IGE056, Ac-CTEGPWGWVCI-nh2] (Ac-CTEGPWGWVCI-NH2; disulfide 1-10)
[1]
  IC50: > 500 µM

## CSCC[C@H](NC(=O)[C@@H]1CSSC[C@H](NC(=O)[C@H](CCCNC(=N)N)NC(=O)[C@@H]2CCCN2C(=O)[C@H](CC(C)C)NC(=O)[C@@H](N)CC(N)=O)C(=O)N[C@@H]([C@@H](C)O)C(=O)N[C@@H](CCC(=O)O)C(=O)NCC(=O)N[C@@H](C)C(=O)N[C@@H](Cc2c[nH]c3ccccc23)C(=O)NCC(=O)N[C@@H](Cc2c[nH]c3ccccc23)C(=O)N[C@@H](C(C)C)C(=O)N1)C(=O)O [IGE070, NLPRCTEGAWGWVCM] (H-NLPRCTEGAWGWVCM-OH; disulfide 5-14)
[1]
  IC50: > 500 µM

## CSCC[C@H](NC(=O)[C@@H]1CSSC[C@H](NC(=O)[C@H](CCCNC(=N)N)NC(=O)[C@@H]2CCCN2C(=O)[C@H](CC(C)C)NC(=O)[C@@H](N)CC(N)=O)C(=O)N[C@@H]([C@@H](C)O)C(=O)N[C@@H](CCC(=O)O)C(=O)NCC(=O)N2CCC[C@H]2C(=O)N[C@@H](Cc2c[nH]c3ccccc23)C(=O)NCC(=O)N[C@@H](Cc2c[nH]c3ccccc23)C(=O)N[C@@H](C(C)C)C(=O)N1)C(=O)N[C@@H](C)C(=O)N[C@@H](C)C(=O)N[C@@H](CC(=O)O)C(=O)O [NLPRCTEGPWGWVCMAAD] (H-NLPRCTEGPWGWVCMAAD-OH; disulfide 5-14; N-terminus and C-terminus assumed)
  fold improvement over the EIQECTEGPWGWFCVGSG peptide: 40 fold
  fold improvement over the MGTLCLEGPEGWFCIESA peptide: greater than 160 fold

## CC(=O)N[C@@H](C)C(=O)N[C@@H](CC(C)C)C(=O)N[C@H]1CSSC[C@@H](C(=O)N[C@@H](Cc2ccc(O)cc2)C(=O)N[C@H](C(N)=O)C(C)C)NC(=O)[C@H](C(C)C)NC(=O)[C@H](CCC(=O)O)NC(=O)[C@@H]2CCCN2C1=O [IGE036, Ac-ALCPEVCYV-nh2] (Ac-ALCPEVCYV-NH2; disulfide 3-7)
  inhibiting 125I-IgE binding to cell surface expressed FcεRI (in words): not active
[2]
  IC50: > 500 µM

## CSCC[C@H](NC(=O)[C@@H]1CSSC[C@H](NC(=O)[C@@H]2CCCN2C(=O)[C@H](CC(C)C)NC(=O)[C@H](CC(N)=O)NC(C)=O)C(=O)N[C@@H]([C@@H](C)O)C(=O)N[C@@H](C)C(=O)NCC(=O)N2CCC[C@H]2C(=O)N[C@@H](Cc2c[nH]c3ccccc23)C(=O)NCC(=O)N[C@@H](Cc2c[nH]c3ccccc23)C(=O)N[C@@H](C(C)C)C(=O)N1)C(=O)N[C@@H](C)C(=O)N[C@@H](C)C(=O)N[C@@H](CC(=O)O)C(N)=O [IGE060, Ac-NLPCTAGPWGWVCMAAD-nh2] (Ac-NLPCTAGPWGWVCMAAD-NH2; disulfide 4-13)
[1]
  IC50: > 500 µM
